In the supplement of paper PMC10307832:

Assays:
Assay in all cases: relative viability (nuclei count vs DMSO), 5 days (fraction); higher = more cells survive
Bleomycin + Navitoclax = compound: CC1=C(N=C(N=C1N)[C@H](CC(=O)N)NC[C@@H](C(=O)N)N)C(=O)N[C@@H]([C@H](C2=CN=CN2)OC3C(C(C(C(O3)CO)O)O)OC4C(C(C(C(O4)CO)O)OC(=O)N)O)C(=O)N[C@H](C)[C@H]([C@H](C)C(=O)N[C@@H]([C@@H](C)O)C(=O)NCCC5=NC(=CS5)C6=NC(=CS6)C(=O)NCCC[S+](C)C)O [Bleomycin] + CC1(C)CCC(c2ccc(Cl)cc2)=C(CN2CCN(c3ccc(C(=O)NS(=O)(=O)c4ccc(N[C@H](CCN5CCOCC5)CSc5ccccc5)c(S(=O)(=O)C(F)(F)F)c4)cc3)CC2)C1 [Navitoclax] (partner 0.5 µM); details: main component drawn
Procedure, shortened: (§1)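 Relative viability equals treated-well nuclei counts divided by vehicle-well nuclei counts. Counts came from 4× images of lung cancer cell lines grown in 1536-well plates for 5 days after pin-tool dosing on the day after seeding. Dosing used one drug alone or a fixed anchor-drug dose plus five library-drug doses (not always all listed) in √10 steps, and values are medians of duplicate plates.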

Bleomycin + Lapatinib = compound: CC1=C(N=C(N=C1N)[C@H](CC(=O)N)NC[C@@H](C(=O)N)N)C(=O)N[C@@H]([C@H](C2=CN=CN2)OC3C(C(C(C(O3)CO)O)O)OC4C(C(C(C(O4)CO)O)OC(=O)N)O)C(=O)N[C@H](C)[C@H]([C@H](C)C(=O)N[C@@H]([C@@H](C)O)C(=O)NCCC5=NC(=CS5)C6=NC(=CS6)C(=O)NCCC[S+](C)C)O [Bleomycin] + CS(=O)(=O)CCNCc1ccc(-c2ccc3ncnc(Nc4ccc(OCc5cccc(F)c5)c(Cl)c4)c3c2)o1 [Lapatinib] (partner 2 µM); details: main component drawn
Procedure, shortened: as §1

Etoposide + Luminespib = compound: COc1cc([C@@H]2c3cc4c(cc3[C@@H](O[C@@H]3O[C@@H]5CO[C@@H](C)O[C@H]5[C@H](O)[C@H]3O)[C@H]3COC(=O)[C@H]23)OCO4)cc(OC)c1O [Etoposide] + CCNC(=O)c1noc(-c2cc(C(C)C)c(O)cc2O)c1-c1ccc(CN2CCOCC2)cc1 [Luminespib] (partner 0.01 µM)
Procedure, shortened: as §1

Etoposide + Dasatinib = compound: COc1cc([C@@H]2c3cc4c(cc3[C@@H](O[C@@H]3O[C@@H]5CO[C@@H](C)O[C@H]5[C@H](O)[C@H]3O)[C@H]3COC(=O)[C@H]23)OCO4)cc(OC)c1O [Etoposide] + Cc1nc(Nc2ncc(C(=O)Nc3c(C)cccc3Cl)s2)cc(N2CCN(CCO)CC2)n1 [Dasatinib] (partner 0.075 µM)
Procedure, shortened: as §1

Row | Cell Line | relative viability (Bleomycin + Navitoclax; first compound 0.01 µM) | relative viability (Bleomycin + Navitoclax; first compound 0.03162 µM) | relative viability (Bleomycin + Navitoclax; first compound 0.1 µM) | relative viability (Bleomycin + Navitoclax; first compound 0.3162 µM) | relative viability (Bleomycin + Navitoclax; first compound 1 µM) | relative viability (Bleomycin + Lapatinib; first compound 0.01 µM) | relative viability (Bleomycin + Lapatinib; first compound 0.03162 µM) | relative viability (Bleomycin + Lapatinib; first compound 0.1 µM) | relative viability (Bleomycin + Lapatinib; first compound 0.3162 µM) | relative viability (Bleomycin + Lapatinib; first compound 1 µM) | relative viability (Etoposide + Luminespib; first compound 0.01 µM) | relative viability (Etoposide + Luminespib; first compound 0.03162 µM) | relative viability (Etoposide + Luminespib; first compound 0.1 µM) | relative viability (Etoposide + Luminespib; first compound 0.3162 µM) | relative viability (Etoposide + Luminespib; first compound 1 µM) | relative viability (Etoposide + Dasatinib; first compound 0.01 µM) | relative viability (Etoposide + Dasatinib; first compound 0.03162 µM) | relative viability (Etoposide + Dasatinib; first compound 0.1 µM) | relative viability (Etoposide + Dasatinib; first compound 0.3162 µM) | relative viability (Etoposide + Dasatinib; first compound 1 µM)
1 | NCI-H1437 | 0.952 | 1.07 | 0.978 | 0.667 | 0.491 | 0.711 | 0.743 | 0.775 | 0.296 | 0.373 | 1.1 | 1.07 | 1.14 | 0.7 | 0.509 | 0.585 | 0.443 | 0.283 | 0.29 | 0.165
2 | LU99A | 0.622 | 0.491 | 0.335 | 0.166 | 0.147 | 0.58 | 0.742 | 0.271 | 0.138 | 0.108 | 0.279 | 0.255 | 0.246 | 0.22 | 0.217 | 0.427 | 0.727 | 0.262 | 0.395 | 0.142
3 | HCC-827 | 0.986 | 1.06 | 0.991 | 0.723 | 0.362 | 0.197 | 0.204 | 0.187 | 0.173 | 0.15 | 0.283 | 0.795 | 0.204 | 0.315 | 0.175 | 0.243 | 0.298 | 0.177 | 0.279 | 0.188
4 | LK-2 | 0.478 | 0.537 | 0.415 | 0.214 | 0.239 | 0.66 | 0.488 | 0.542 | 0.261 | 0.248 | 0.206 | 0.181 | 0.154 | 0.195 | 0.159 | 0.248 | 0.297 | 0.275 | 0.301 | 0.181
5 | BEN | 0.0606 | 0.0742 | 0.0676 | 0.0599 | 0.0555 | 0.72 | 0.709 | 0.913 | 0.571 | 0.542 | 0.235 | 0.583 | – | 0.206 | 0.245 | 0.353 | 0.416 | – | 0.304 | 0.351
6 | NCI-H2347 | 0.75 | 0.883 | 0.663 | 0.259 | 0.402 | 0.836 | 0.974 | 0.966 | 0.612 | 0.493 | 0.498 | 0.407 | 0.299 | 0.237 | 0.285 | 0.365 | 0.294 | 0.293 | 0.255 | 0.249
7 | NCI-H1395 | 0.829 | 0.944 | 0.709 | 0.535 | 0.496 | 0.965 | 0.841 | 0.711 | 0.417 | 0.397 | 0.713 | 0.539 | 0.607 | 0.54 | 0.415 | 0.422 | 0.414 | 0.368 | 0.406 | 0.438
8 | 201T | 1.17 | 1.13 | 1.18 | 1.16 | 1.04 | 1 | 0.958 | 0.961 | 0.916 | 0.78 | 0.839 | 1.11 | 0.952 | 0.754 | 0.539 | 0.639 | 0.655 | 0.524 | 0.548 | 0.477
9 | NCI-H2170 | 0.503 | 0.555 | 0.578 | 0.414 | 0.377 | 0.303 | 0.262 | 0.259 | 0.231 | 0.21 | 0.714 | 0.874 | 0.273 | 0.585 | 0.452 | 0.678 | 0.658 | 0.353 | 0.619 | 0.401
10 | NCI-H520 | 0.858 | 0.957 | 1.1 | 0.927 | 0.656 | 0.715 | 0.79 | 0.833 | 0.54 | 0.43 | 0.204 | 0.198 | – | 0.218 | 0.219 | 0.22 | 0.239 | 0.181 | 0.208 | 0.269
11 | NCI-H727 | 0.388 | 0.339 | 0.351 | 0.181 | 0.286 | 0.718 | 0.781 | 0.695 | 0.204 | 0.472 | 0.53 | 0.294 | – | 0.3 | 0.418 | 0.4 | 0.355 | – | 0.37 | 0.408
12 | HCC-15 | 0.656 | 0.68 | 0.713 | 0.378 | 0.324 | 0.808 | 0.801 | 0.806 | 0.299 | 0.223 | 0.473 | 0.303 | 0.366 | 0.15 | 0.178 | 0.623 | 0.64 | 0.537 | 0.261 | 0.0797
13 | NCI-H460 | 0.343 | 0.465 | 0.0823 | 0.0158 | 0.0206 | 0.296 | 0.29 | 0.0624 | 0.0161 | 0.0213 | 0.0412 | 0.0382 | 0.0395 | 0.0281 | 0.0302 | 0.432 | 0.509 | 0.285 | 0.132 | 0.0414
14 | EPLC-272H | 0.793 | 0.888 | 0.826 | 1.29 | 0.159 | 0.586 | 0.812 | 0.369 | 0.205 | 0.109 | 0.185 | 0.238 | 0.207 | 0.265 | 0.12 | 0.373 | 0.342 | 0.222 | 0.354 | 0.245
